In ChEMBL document CHEMBL4002580, “Chloromethylhalicyclamine B, a Marine-Derived Protein Kinase CK1δ/ε Inhibitor” (J Nat Prod, 2016):
Active and inactive are the calls of the source. The calls are words filed in the database; no cut-off is given here.

Assays:
[1] = Inhibition of porcine brain CK1delta/epsilon using CKS peptide as substrate after 30 mins in presence of [gamma-33P]ATP by scintillation counting method; parameters: species or system Sus scrofa
[2] = target: T1, Dual specificity tyrosine-phosphorylation-regulated kinase 3 (Homo sapiens) (UniProt O43781); assay: Inhibition of human recombinant GST-fused DYRK3 expressed in Escherichia coli at 0.003 to 10 uM using RS peptide as substrate after 30 mins in presence of [gamma-33P]ATP by scintillation counting method
T1 sequence (whole entry): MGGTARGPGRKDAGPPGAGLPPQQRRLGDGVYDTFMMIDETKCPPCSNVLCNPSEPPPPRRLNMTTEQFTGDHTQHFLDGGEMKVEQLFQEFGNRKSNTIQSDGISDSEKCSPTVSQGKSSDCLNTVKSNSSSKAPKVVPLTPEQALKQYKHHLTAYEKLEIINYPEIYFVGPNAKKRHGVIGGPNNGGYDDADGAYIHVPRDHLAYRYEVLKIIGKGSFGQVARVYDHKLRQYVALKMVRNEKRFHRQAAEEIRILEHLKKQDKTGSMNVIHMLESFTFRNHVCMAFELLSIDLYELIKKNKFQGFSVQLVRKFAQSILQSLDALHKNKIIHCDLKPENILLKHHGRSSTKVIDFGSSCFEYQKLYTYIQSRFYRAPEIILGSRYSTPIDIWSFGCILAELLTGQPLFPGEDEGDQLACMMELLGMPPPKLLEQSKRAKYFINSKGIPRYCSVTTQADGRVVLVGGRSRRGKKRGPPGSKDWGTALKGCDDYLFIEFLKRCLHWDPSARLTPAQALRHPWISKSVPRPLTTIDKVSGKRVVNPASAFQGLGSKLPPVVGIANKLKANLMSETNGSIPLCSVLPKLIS

[3] = target: CDK2/Cyclin A2 (Homo sapiens) (UniProt P24941+P20248); assay: Inhibition of CDK2/cyclin A (unknown origin) at 0.003 to 10 uM after 30 mins in presence of [gamma-33P]ATP by scintillation counting method; type: protein-complex assay
[4] = target: Dual specificity protein kinase CLK4 (Mus musculus) (UniProt O35493); assay: Inhibition of mouse recombinant GST-fused CLK4 expressed in Escherichia coli at 0.003 to 10 uM using RS peptide as substrate after 30 mins in presence of [gamma-33P]ATP by scintillation counting method
Chain of Dual specificity protein kinase CLK4 (Mus musculus) (O35493 whole entry, looked up, the tested form may be a part): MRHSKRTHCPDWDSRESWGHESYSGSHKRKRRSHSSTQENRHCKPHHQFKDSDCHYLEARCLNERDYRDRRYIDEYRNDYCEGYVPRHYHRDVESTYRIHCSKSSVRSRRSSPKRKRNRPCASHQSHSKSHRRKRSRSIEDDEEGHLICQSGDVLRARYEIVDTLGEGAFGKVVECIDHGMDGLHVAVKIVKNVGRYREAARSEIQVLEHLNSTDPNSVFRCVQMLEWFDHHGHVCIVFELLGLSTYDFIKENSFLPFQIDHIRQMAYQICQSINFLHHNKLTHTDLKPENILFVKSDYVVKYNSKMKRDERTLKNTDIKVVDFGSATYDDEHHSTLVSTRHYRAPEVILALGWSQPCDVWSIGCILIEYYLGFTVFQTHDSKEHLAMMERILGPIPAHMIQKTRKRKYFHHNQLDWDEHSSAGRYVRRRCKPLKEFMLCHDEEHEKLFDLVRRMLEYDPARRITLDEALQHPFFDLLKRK

Leishmania major = assay: Inhibition of Leishmania major recombinant CK1 expressed in Escherichia coli at 0.003 to 10 uM using CKS peptide as substrate after 30 mins in presence of [gamma-33P]ATP by scintillation counting method
[5] = target: T2, Dual specificity tyrosine-phosphorylation-regulated kinase 2 (Homo sapiens) (UniProt Q92630); assay: Inhibition of human recombinant GST-fused DYRK2 expressed in Escherichia coli at 0.003 to 10 uM using RS peptide as substrate after 30 mins in presence of [gamma-33P]ATP by scintillation counting method
T2 sequence (whole entry): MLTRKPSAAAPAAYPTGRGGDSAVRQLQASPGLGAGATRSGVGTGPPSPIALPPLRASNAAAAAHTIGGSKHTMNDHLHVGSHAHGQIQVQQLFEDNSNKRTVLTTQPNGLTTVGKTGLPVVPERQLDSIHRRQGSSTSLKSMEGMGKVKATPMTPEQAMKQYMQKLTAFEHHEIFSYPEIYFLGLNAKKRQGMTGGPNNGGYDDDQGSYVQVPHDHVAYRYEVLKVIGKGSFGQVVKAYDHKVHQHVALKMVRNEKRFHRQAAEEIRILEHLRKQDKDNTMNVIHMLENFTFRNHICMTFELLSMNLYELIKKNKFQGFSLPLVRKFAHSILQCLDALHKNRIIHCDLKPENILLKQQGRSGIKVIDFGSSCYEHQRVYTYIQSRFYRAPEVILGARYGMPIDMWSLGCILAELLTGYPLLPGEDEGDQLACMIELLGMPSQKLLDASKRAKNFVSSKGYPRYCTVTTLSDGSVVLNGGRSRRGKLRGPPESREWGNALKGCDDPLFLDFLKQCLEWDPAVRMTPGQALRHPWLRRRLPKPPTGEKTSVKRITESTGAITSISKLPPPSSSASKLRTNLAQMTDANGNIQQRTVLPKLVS

[6] = target: Dual specificity protein kinase CLK2 (Mus musculus) (UniProt O35491); assay: Inhibition of mouse recombinant GST-fused CLK2 expressed in Escherichia coli at 0.003 to 10 uM using RS peptide as substrate after 30 mins in presence of [gamma-33P]ATP by scintillation counting method
Chain of Dual specificity protein kinase CLK2 (Mus musculus) (O35491 whole entry, looked up, the tested form may be a part): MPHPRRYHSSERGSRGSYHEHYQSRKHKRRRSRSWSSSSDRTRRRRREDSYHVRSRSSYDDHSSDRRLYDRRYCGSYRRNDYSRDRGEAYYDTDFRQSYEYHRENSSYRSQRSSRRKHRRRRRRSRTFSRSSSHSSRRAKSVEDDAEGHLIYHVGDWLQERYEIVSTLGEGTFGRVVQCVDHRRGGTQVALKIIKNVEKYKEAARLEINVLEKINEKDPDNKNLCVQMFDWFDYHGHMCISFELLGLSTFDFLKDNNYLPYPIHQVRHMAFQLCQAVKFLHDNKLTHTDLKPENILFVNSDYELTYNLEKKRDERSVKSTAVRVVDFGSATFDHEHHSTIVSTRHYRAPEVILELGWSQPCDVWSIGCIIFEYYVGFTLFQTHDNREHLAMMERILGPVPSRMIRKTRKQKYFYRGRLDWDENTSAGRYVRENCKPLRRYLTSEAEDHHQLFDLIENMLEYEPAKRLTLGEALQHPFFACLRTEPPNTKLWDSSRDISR

[7] = target: Dual specificity tyrosine-phosphorylation-regulated kinase 1B (Homo sapiens) (UniProt Q9Y463); assay: Inhibition of human recombinant GST-fused DYRK1B expressed in Escherichia coli at 0.003 to 10 uM using RS peptide as substrate after 30 mins in presence of [gamma-33P]ATP by scintillation counting method
Chain of Dual specificity tyrosine-phosphorylation-regulated kinase 1B (Homo sapiens) (Q9Y463 whole entry, looked up, the tested form may be a part): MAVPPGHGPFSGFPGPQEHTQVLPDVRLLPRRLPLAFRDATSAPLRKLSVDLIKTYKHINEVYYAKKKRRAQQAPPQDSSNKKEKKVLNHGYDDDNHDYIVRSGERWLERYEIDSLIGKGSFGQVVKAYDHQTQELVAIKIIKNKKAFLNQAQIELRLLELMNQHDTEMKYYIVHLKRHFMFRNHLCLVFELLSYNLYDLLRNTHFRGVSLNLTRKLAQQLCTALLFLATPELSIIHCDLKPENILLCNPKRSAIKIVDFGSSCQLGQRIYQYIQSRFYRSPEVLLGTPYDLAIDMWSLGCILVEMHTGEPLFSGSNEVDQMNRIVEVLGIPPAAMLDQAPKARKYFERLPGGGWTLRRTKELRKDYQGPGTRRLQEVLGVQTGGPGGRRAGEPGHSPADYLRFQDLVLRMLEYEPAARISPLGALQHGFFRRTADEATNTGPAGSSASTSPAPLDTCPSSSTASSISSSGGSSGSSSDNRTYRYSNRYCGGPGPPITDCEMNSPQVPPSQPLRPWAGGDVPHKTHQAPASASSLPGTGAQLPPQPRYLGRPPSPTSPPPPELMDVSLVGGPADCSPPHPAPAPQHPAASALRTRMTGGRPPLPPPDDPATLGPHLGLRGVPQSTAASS

[8] = target: Dual specificity protein kinase CLK3 (Mus musculus) (UniProt O35492); assay: Inhibition of mouse recombinant GST-fused CLK3 expressed in Escherichia coli at 0.003 to 10 uM using RS peptide as substrate after 30 mins in presence of [gamma-33P]ATP by scintillation counting method
Chain of Dual specificity protein kinase CLK3 (Mus musculus) (O35492 whole entry, the tested form may be a part): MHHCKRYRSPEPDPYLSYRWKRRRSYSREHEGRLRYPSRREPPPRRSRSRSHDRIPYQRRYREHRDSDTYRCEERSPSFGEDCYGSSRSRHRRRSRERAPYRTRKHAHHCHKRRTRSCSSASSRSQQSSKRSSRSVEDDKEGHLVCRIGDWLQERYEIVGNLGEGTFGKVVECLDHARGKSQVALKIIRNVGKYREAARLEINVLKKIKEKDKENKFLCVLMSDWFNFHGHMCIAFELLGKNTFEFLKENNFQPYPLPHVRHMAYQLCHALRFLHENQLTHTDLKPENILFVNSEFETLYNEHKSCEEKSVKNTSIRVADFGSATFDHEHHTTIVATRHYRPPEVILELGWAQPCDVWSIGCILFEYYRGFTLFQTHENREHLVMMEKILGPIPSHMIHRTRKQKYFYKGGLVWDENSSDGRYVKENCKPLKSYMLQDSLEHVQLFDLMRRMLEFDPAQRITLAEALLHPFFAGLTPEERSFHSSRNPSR

[9] = target: Dual specificity tyrosine-phosphorylation-regulated kinase 1A (Homo sapiens) (UniProt Q13627); assay: Inhibition of GST-fused DYRK1A (unknown origin) expressed in Escherichia coli at 0.003 to 10 uM using RS peptide as substrate after 30 mins in presence of [gamma-33P]ATP by scintillation counting method
[10] = target: Cyclin-dependent kinase 5/CDK5 activator 1 (Homo sapiens) (UniProt Q00535+Q15078); assay: Inhibition of recombinant human CDK5/p25 expressed in Escherichia coli at 0.003 to 10 uM using histone H1 as substrate after 30 mins in presence of [gamma-33P]ATP by scintillation counting method
Chain of Cyclin-dependent kinase 5/CDK5 activator 1 (Homo sapiens) (Q00535 whole entry): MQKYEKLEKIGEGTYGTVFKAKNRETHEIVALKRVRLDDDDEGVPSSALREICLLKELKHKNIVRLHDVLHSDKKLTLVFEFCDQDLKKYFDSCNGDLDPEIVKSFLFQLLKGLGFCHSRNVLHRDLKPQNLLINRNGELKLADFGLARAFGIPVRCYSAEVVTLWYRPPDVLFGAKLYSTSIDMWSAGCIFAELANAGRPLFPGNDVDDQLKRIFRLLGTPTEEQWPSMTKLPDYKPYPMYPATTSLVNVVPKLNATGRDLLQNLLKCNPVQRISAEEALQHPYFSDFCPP
Chain of Cyclin-dependent kinase 5/CDK5 activator 1 (Homo sapiens) (Q15078 99-307 partner limits assumed): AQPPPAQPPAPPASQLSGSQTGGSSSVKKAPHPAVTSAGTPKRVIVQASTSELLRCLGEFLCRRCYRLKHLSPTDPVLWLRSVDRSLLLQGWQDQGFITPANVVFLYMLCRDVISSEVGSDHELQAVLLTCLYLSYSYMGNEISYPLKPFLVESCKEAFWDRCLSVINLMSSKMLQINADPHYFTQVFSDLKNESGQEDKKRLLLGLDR

[11] = target: CDK9/cyclin T1 (Homo sapiens) (UniProt O60563+P50750); assay: Inhibition of recombinant human CDK9/cyclin T expressed in insect cells at 0.003 to 10 uM using CDK7/9-Tide as substrate after 30 mins in presence of [gamma-33P]ATP by scintillation counting method
Homo sapiens = species on record: Homo sapiens; assay: Inhibition of GSK3 (unknown origin) at 0.003 to 10 uM using GS-1 as substrate after 30 mins in presence of [gamma-33P]ATP by scintillation counting method
Sus scrofa = species on record: Sus scrofa; assay: Inhibition of porcine brain CK1delta/epsilon at 0.003 to 10 uM using CKS peptide as substrate after 30 mins in presence of [gamma-33P]ATP by scintillation counting method
[12] = target: Dual specificity protein kinase CLK1 (Mus musculus) (UniProt P22518); assay: Inhibition of mouse recombinant GST-fused CLK1 expressed in Escherichia coli at 0.003 to 10 uM using RS peptide as substrate after 30 mins in presence of [gamma-33P]ATP by scintillation counting method
Chain of Dual specificity protein kinase CLK1 (Mus musculus) (P22518 whole entry, looked up, the tested form may be a part): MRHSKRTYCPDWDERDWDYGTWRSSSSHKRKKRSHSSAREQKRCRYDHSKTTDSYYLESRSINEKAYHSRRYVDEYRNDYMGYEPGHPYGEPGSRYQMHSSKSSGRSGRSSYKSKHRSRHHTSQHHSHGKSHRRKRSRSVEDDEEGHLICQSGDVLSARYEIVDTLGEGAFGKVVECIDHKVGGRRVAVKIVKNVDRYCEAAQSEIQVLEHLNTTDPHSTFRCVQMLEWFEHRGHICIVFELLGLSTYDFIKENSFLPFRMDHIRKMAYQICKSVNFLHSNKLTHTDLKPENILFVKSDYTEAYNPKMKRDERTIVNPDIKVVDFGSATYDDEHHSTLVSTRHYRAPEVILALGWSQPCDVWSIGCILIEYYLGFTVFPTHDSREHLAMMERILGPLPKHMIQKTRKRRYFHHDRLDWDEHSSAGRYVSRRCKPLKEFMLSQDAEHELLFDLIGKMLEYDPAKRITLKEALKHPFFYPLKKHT

IC50 [1] [µM] | inhibition [2] | inhibition [3] | inhibition [4] | inhibition (Leishmania major) | inhibition [5] | inhibition [6] | inhibition [7] | inhibition [8] | inhibition [9] | inhibition [10] | inhibition [11] | inhibition (Homo sapiens) | inhibition (Sus scrofa) | inhibition [12] | Compound
6 | inactive | inactive | inactive | inactive | inactive | inactive | inactive | inactive | – | – | – | – | – | – | ClC[N@@+]12CCCC/C=C\CC[C@@H]3C=C4CN(CCCC/C=C\CC[C@H](C1)[C@H]4CC2)C3
– | – | – | – | – | – | – | – | – | inactive | inactive | inactive | inactive | inactive | inactive | C1=C2CN3CCCC/C=C\CC[C@@H]4CN(CCCC/C=C\CC[C@H]1C3)CC[C@@H]24
